Measured values as given in patent US7300946B2, “N-(substituted arylmethyl)-4-(disubstituted methyl) piperidines and pyridines” (Bayer CropScience AG, priority 2002, dated 2007).

System: tobacco budworm (Heliothis virescens [Fabricius])
Test: surface-treated diet test against the tobacco budworm
Type: in vivo
Conditions: tobacco budworm second instar larvae; 0.25 millimoles of candidate insecticide on the surface of the diet; five-day exposure; compared to total number of insects infested
In short: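 Wheat germ artificial diet surface-treated with 40 µL of 50 mM DMSO stock diluted 1:7 in 1:1 water/acetone (0.25 millimolar on diet), or sub-multiples for rate tests. One second-instar larva per well, 25° C, 60% RH, 5 days; percent weight inhibition vs DMSO controls and percent mortality.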

| SMILES | Percent Mortality [%] |
| --- | --- |
| CCCNC(=O)OC(c1ccc(C(F)(F)F)cc1)C1CCN(Cc2ccc(Oc3ccccn3)cc2)CC1 (centres unmarked) [Compound 775] | 33 |
| N#Cc1cccnc1Oc1ccc(CN2CCC(C(OC(=O)Nc3cc(F)cc(F)c3)c3ccc(OC(F)(F)F)cc3)CC2)cc1 (centres unmarked) [Compound 710] | 100 |
| CNC(=O)Oc1ccc(C[N+]2([O-])CCC(=C(c3ccc(C(F)(F)F)cc3)c3ccc(C(F)(F)F)cc3)CC2)cc1 (centres unmarked) [Compound 828] | 100 |
| [O-][N+]1(Cc2ccc(Oc3ccccn3)cc2)CCC(=C(c2ccc(F)cc2)c2ccc(F)cc2)CC1 (centres unmarked) [Compound 842] | 100 |
| [O-][N+]1(Cc2ccc(Oc3ccccn3)cc2)CCC(=C(c2ccc(Cl)cc2)c2ccc(Cl)cc2)CC1 (centres unmarked) [Compound 841] | 100 |
| CNC(=O)Oc1ccc(CN2CCC(=C(c3ccc(Cl)cc3)c3ccc(Cl)cc3)CC2)cc1 [Compound 789] | 100 |
| [O-][N+]1(Cc2ccc(Oc3ncccn3)cc2)CCC(=C(c2ccc(C(F)(F)F)cc2)c2ccccc2Cl)CC1 (centres unmarked) [Compound 845] | 83 |
| N#Cc1ccc(Oc2ccc(CN3CCC(C(OC(=O)Nc4cc(F)cc(F)c4)c4ccc(OC(F)(F)F)cc4)CC3)cc2)nc1 (centres unmarked) [Compound 711] | 100 |
| Fc1cccc(C(=C2CCN(Cc3ccc(Oc4ncccn4)cc3)CC2)c2ccc(C(F)(F)F)cc2)c1 [Compound 817] | 100 |
| CC=CCOC(=O)Nc1ccc(CN2CCC(=C(c3ccc(Cl)cc3)c3ccc(Cl)cc3)CC2)cc1 [Compound 798] | 0 |

Same assay, conditions: tobacco budworm second instar larvae; 0.25 millimoles of candidate insecticide on the surface of the diet; five-day exposure; inhibition of insect weight relative to untreated controls

| SMILES | Percent Growth Inhibition [%] |
| --- | --- |
| CCCNC(=O)OC(c1ccc(C(F)(F)F)cc1)C1CCN(Cc2ccc(Oc3ccccn3)cc2)CC1 (centres unmarked) [Compound 775] | 100 |
| N#Cc1cccnc1Oc1ccc(CN2CCC(C(OC(=O)Nc3cc(F)cc(F)c3)c3ccc(OC(F)(F)F)cc3)CC2)cc1 (centres unmarked) [Compound 710] | 100 |
| CNC(=O)Oc1ccc(C[N+]2([O-])CCC(=C(c3ccc(C(F)(F)F)cc3)c3ccc(C(F)(F)F)cc3)CC2)cc1 (centres unmarked) [Compound 828] | 100 |
| [O-][N+]1(Cc2ccc(Oc3ccccn3)cc2)CCC(=C(c2ccc(F)cc2)c2ccc(F)cc2)CC1 (centres unmarked) [Compound 842] | 100 |
| [O-][N+]1(Cc2ccc(Oc3ccccn3)cc2)CCC(=C(c2ccc(Cl)cc2)c2ccc(Cl)cc2)CC1 (centres unmarked) [Compound 841] | 100 |
| CNC(=O)Oc1ccc(CN2CCC(=C(c3ccc(Cl)cc3)c3ccc(Cl)cc3)CC2)cc1 [Compound 789] | 100 |
| [O-][N+]1(Cc2ccc(Oc3ncccn3)cc2)CCC(=C(c2ccc(C(F)(F)F)cc2)c2ccccc2Cl)CC1 (centres unmarked) [Compound 845] | 100 |
| N#Cc1ccc(Oc2ccc(CN3CCC(C(OC(=O)Nc4cc(F)cc(F)c4)c4ccc(OC(F)(F)F)cc4)CC3)cc2)nc1 (centres unmarked) [Compound 711] | 100 |
| Fc1cccc(C(=C2CCN(Cc3ccc(Oc4ncccn4)cc3)CC2)c2ccc(C(F)(F)F)cc2)c1 [Compound 817] | 100 |
| CC=CCOC(=O)Nc1ccc(CN2CCC(=C(c3ccc(Cl)cc3)c3ccc(Cl)cc3)CC2)cc1 [Compound 798] | 59 |

Same assay, conditions: tobacco budworm second instar larvae; surface-treated diet; 0.25 millimoles of candidate insecticide on the surface of the diet; five-day exposure; compared to total number of insects infested

| SMILES | Percent Mortality [%] |
| --- | --- |
| CCON=Cc1ccc(CN2CCC(C(OC(=O)Nc3ccc(OC(F)(F)F)cc3)c3ccc(C(F)(F)F)cc3)CC2)cc1 (centres unmarked) [Compound 211] | 100 |
| CCn1nnc(-c2ccc(CN3CCC(C(OC(=O)Nc4c(Cl)cccc4Cl)c4ccc(C(F)(F)F)cc4)CC3)cc2)n1 (centres unmarked) [Compound 282] | 0 |
| Cn1nnc(-c2ccc(CN3CCC(C(NC(=O)Nc4ccc(C(F)(F)F)cc4)c4ccc(OC(F)(F)F)cc4)CC3)cc2)n1 (centres unmarked) [Compound 344] | 100 |
| O=C(Nc1cc(F)cc(F)c1)OC(c1cccc(C(F)(F)F)c1)C1CCN(Cc2ccc(Oc3ccccn3)cc2)CC1 (centres unmarked) [Compound 654] | 100 |
| COC(=O)N(c1ccc(CN2CCC(C(OC(=O)Nc3cc(F)cc(F)c3)c3ccc(C(F)(F)F)cc3)CC2)cc1)c1ccccn1 (centres unmarked) [Compound 516] | 100 |
| CC(C)OC(=O)Nc1ccc(CN2CCC(C(OC(=O)Nc3ccc(Cl)cc3)c3ccc(Cl)cc3Cl)CC2)cc1 (centres unmarked) [Compound 506] | 100 |
| FC(F)(F)c1ccc(C(Oc2cncc(Cl)c2)C2CCN(Cc3ccc(Oc4ccccn4)cc3)CC2)cc1 (centres unmarked) [Compound 443] | 33 |
| [O-][N+]1(Cc2ccc(OCc3nccs3)cc2)CCC(=C(c2ccc(C(F)(F)F)cc2)c2ccc(C(F)(F)F)cc2)CC1 (centres unmarked) [Compound 105] | 100 |
| O=C(Nc1cc(F)cc(F)c1)OC(c1ccc(C(F)(F)F)cc1)C1CCN(Cc2ccc(Oc3ccc(Cl)cn3)cc2)CC1 (centres unmarked) [Compound 684] | 100 |
| O=C(Nc1cccc(F)c1)OC(c1ccc(C(F)(F)F)cc1)C1CCN(Cc2ccc(Oc3ccccn3)cc2)CC1 (centres unmarked) [Compound 674] | 100 |
| CCON=Cc1ccc(CN2CCC(C(OC(=O)Nc3ccc(Cl)cc3)c3ccc(F)cc3)CC2)cc1 (centres unmarked) [Compound 526] | 100 |
| CCCOc1ccc(CN2CCC(=C(c3ccc(O)cc3)c3ccc(O)cc3)CC2)cc1 [Compound 44] | 67 |
| CC(C)OC(=O)c1ccc(CN2CCC(C(OC(=O)Nc3ccc(Cl)cc3)c3ccc(C(F)(F)F)cc3)CC2)cc1 (centres unmarked) [Compound 492] | 100 |
| O=C(Nc1ccc(Cl)c(Cl)c1)OC(c1ccc(C(F)(F)F)cc1)C1CC[N+]([O-])(Cc2ccc(Oc3ccccn3)cc2)CC1 (centres unmarked) [Compound 396] | 100 |
| CCn1nnc(-c2ccc(CN3CCC(C(OC(=O)Nc4cc(F)cc(F)c4)c4ccc(OC)cc4)CC3)cc2)n1 (centres unmarked) [Compound 604] | 100 |
| CCn1nnc(-c2ccc(CN3CCC(C(OC(=S)Nc4ccc(C(F)(F)F)cc4)c4ccc(OC(F)(F)F)cc4)CC3)cc2)n1 (centres unmarked) [Compound 302] | 100 |
| CC(C)OC(=O)Nc1ccc(CN2CCC(C(OC(=O)Nc3cccc(F)c3)c3ccc(OC(F)(F)F)cc3)CC2)cc1 (centres unmarked) [Compound 514] | 100 |
| O=C(Nc1ccc(Cl)cc1)OC(c1ccc(C(F)(F)F)cc1)C1CCN(Cc2ccc(Oc3nsnc3Cl)cc2)CC1 (centres unmarked) [Compound 561] | 50 |
| O=C(Nc1ccc(F)cc1)OC(c1ccc(Cl)c(Cl)c1)C1CCN(Cc2ccc(Oc3ccccn3)cc2)CC1 (centres unmarked) [Compound 646] | 100 |
| CCCOC(=O)Nc1ccc(CN2CCC(=C(c3ccc(C(F)(F)F)cc3)c3ccc(C(F)(F)F)cc3)CC2)cc1 [Compound 57] | 100 |
| Cc1ccc(OC(=O)NC(c2ccc(OC(F)(F)F)cc2)C2CCN(Cc3ccc(-c4nnn(C)n4)cc3)CC2)cc1 (centres unmarked) [Compound 355] | 100 |
| FC(F)(F)c1ccc(C(=C2CCN(Cc3ccccc3)CC2)c2ccccc2)cc1 [Compound 30] | 100 |
| CCn1nnc(-c2ccc(CN3CCC(C(OC(=O)Nc4ccc(C(F)(F)F)cc4)c4ccc(C(F)(F)F)cc4)CC3)cc2)n1 (centres unmarked) [Compound 289] | 100 |
| CCn1nnc(-c2ccc(CN3CCC(C(OC(=O)Nc4ccc(Cl)c(Cl)c4)c4cccc(F)c4)CC3)cc2)n1 (centres unmarked) [Compound 583] | 100 |
| CCON=Cc1ccc(CN2CCC(C(OC(=O)Nc3ccccc3C(F)(F)F)c3ccc(C(F)(F)F)cc3)CC2)cc1 (centres unmarked) [Compound 203] | 100 |
| CCn1nnc(-c2ccc(CN3CCC(C(OC(=O)Nc4ccc(C(F)(F)F)cc4)c4cccc(F)c4)CC3)cc2)n1 (centres unmarked) [Compound 587] | 100 |
| O=C(Nc1cc(F)cc(F)c1)OC(c1ccc(C(F)(F)F)cc1)C1CCN(Cc2ccc(NC(=O)c3c(Cl)cccc3Cl)cc2)CC1 (centres unmarked) [Compound 551] | 100 |

Same assay, conditions: tobacco budworm second instar larvae; surface-treated diet; 0.25 millimoles of candidate insecticide on the surface of the diet; five-day exposure; inhibition of insect weight relative to untreated controls

| SMILES | Percent Growth Inhibition [%] |
| --- | --- |
| CCON=Cc1ccc(CN2CCC(C(OC(=O)Nc3ccc(OC(F)(F)F)cc3)c3ccc(C(F)(F)F)cc3)CC2)cc1 (centres unmarked) [Compound 211] | 100 |
| CCn1nnc(-c2ccc(CN3CCC(C(OC(=O)Nc4c(Cl)cccc4Cl)c4ccc(C(F)(F)F)cc4)CC3)cc2)n1 (centres unmarked) [Compound 282] | 95 |
| Cn1nnc(-c2ccc(CN3CCC(C(NC(=O)Nc4ccc(C(F)(F)F)cc4)c4ccc(OC(F)(F)F)cc4)CC3)cc2)n1 (centres unmarked) [Compound 344] | 100 |
| O=C(Nc1cc(F)cc(F)c1)OC(c1cccc(C(F)(F)F)c1)C1CCN(Cc2ccc(Oc3ccccn3)cc2)CC1 (centres unmarked) [Compound 654] | 100 |
| COC(=O)N(c1ccc(CN2CCC(C(OC(=O)Nc3cc(F)cc(F)c3)c3ccc(C(F)(F)F)cc3)CC2)cc1)c1ccccn1 (centres unmarked) [Compound 516] | 100 |
| CC(C)OC(=O)Nc1ccc(CN2CCC(C(OC(=O)Nc3ccc(Cl)cc3)c3ccc(Cl)cc3Cl)CC2)cc1 (centres unmarked) [Compound 506] | 100 |
| FC(F)(F)c1ccc(C(Oc2cncc(Cl)c2)C2CCN(Cc3ccc(Oc4ccccn4)cc3)CC2)cc1 (centres unmarked) [Compound 443] | 100 |
| [O-][N+]1(Cc2ccc(OCc3nccs3)cc2)CCC(=C(c2ccc(C(F)(F)F)cc2)c2ccc(C(F)(F)F)cc2)CC1 (centres unmarked) [Compound 105] | 100 |
| O=C(Nc1cc(F)cc(F)c1)OC(c1ccc(C(F)(F)F)cc1)C1CCN(Cc2ccc(Oc3ccc(Cl)cn3)cc2)CC1 (centres unmarked) [Compound 684] | 100 |
| O=C(Nc1cccc(F)c1)OC(c1ccc(C(F)(F)F)cc1)C1CCN(Cc2ccc(Oc3ccccn3)cc2)CC1 (centres unmarked) [Compound 674] | 100 |
| CCON=Cc1ccc(CN2CCC(C(OC(=O)Nc3ccc(Cl)cc3)c3ccc(F)cc3)CC2)cc1 (centres unmarked) [Compound 526] | 100 |
| CCCOc1ccc(CN2CCC(=C(c3ccc(O)cc3)c3ccc(O)cc3)CC2)cc1 [Compound 44] | 100 |
| CC(C)OC(=O)c1ccc(CN2CCC(C(OC(=O)Nc3ccc(Cl)cc3)c3ccc(C(F)(F)F)cc3)CC2)cc1 (centres unmarked) [Compound 492] | 100 |
| O=C(Nc1ccc(Cl)c(Cl)c1)OC(c1ccc(C(F)(F)F)cc1)C1CC[N+]([O-])(Cc2ccc(Oc3ccccn3)cc2)CC1 (centres unmarked) [Compound 396] | 100 |
| CCn1nnc(-c2ccc(CN3CCC(C(OC(=O)Nc4cc(F)cc(F)c4)c4ccc(OC)cc4)CC3)cc2)n1 (centres unmarked) [Compound 604] | 100 |
| CCn1nnc(-c2ccc(CN3CCC(C(OC(=S)Nc4ccc(C(F)(F)F)cc4)c4ccc(OC(F)(F)F)cc4)CC3)cc2)n1 (centres unmarked) [Compound 302] | 100 |
| CC(C)OC(=O)Nc1ccc(CN2CCC(C(OC(=O)Nc3cccc(F)c3)c3ccc(OC(F)(F)F)cc3)CC2)cc1 (centres unmarked) [Compound 514] | 100 |
| O=C(Nc1ccc(Cl)cc1)OC(c1ccc(C(F)(F)F)cc1)C1CCN(Cc2ccc(Oc3nsnc3Cl)cc2)CC1 (centres unmarked) [Compound 561] | 100 |
| O=C(Nc1ccc(F)cc1)OC(c1ccc(Cl)c(Cl)c1)C1CCN(Cc2ccc(Oc3ccccn3)cc2)CC1 (centres unmarked) [Compound 646] | 100 |
| CCCOC(=O)Nc1ccc(CN2CCC(=C(c3ccc(C(F)(F)F)cc3)c3ccc(C(F)(F)F)cc3)CC2)cc1 [Compound 57] | 100 |
| Cc1ccc(OC(=O)NC(c2ccc(OC(F)(F)F)cc2)C2CCN(Cc3ccc(-c4nnn(C)n4)cc3)CC2)cc1 (centres unmarked) [Compound 355] | 100 |
| FC(F)(F)c1ccc(C(=C2CCN(Cc3ccccc3)CC2)c2ccccc2)cc1 [Compound 30] | 54 |
| CCn1nnc(-c2ccc(CN3CCC(C(OC(=O)Nc4ccc(C(F)(F)F)cc4)c4ccc(C(F)(F)F)cc4)CC3)cc2)n1 (centres unmarked) [Compound 289] | 100 |
| CCn1nnc(-c2ccc(CN3CCC(C(OC(=O)Nc4ccc(Cl)c(Cl)c4)c4cccc(F)c4)CC3)cc2)n1 (centres unmarked) [Compound 583] | 100 |
| CCON=Cc1ccc(CN2CCC(C(OC(=O)Nc3ccccc3C(F)(F)F)c3ccc(C(F)(F)F)cc3)CC2)cc1 (centres unmarked) [Compound 203] | 100 |
| CCn1nnc(-c2ccc(CN3CCC(C(OC(=O)Nc4ccc(C(F)(F)F)cc4)c4cccc(F)c4)CC3)cc2)n1 (centres unmarked) [Compound 587] | 100 |
| O=C(Nc1cc(F)cc(F)c1)OC(c1ccc(C(F)(F)F)cc1)C1CCN(Cc2ccc(NC(=O)c3c(Cl)cccc3Cl)cc2)CC1 (centres unmarked) [Compound 551] | 100 |
